Results on 1 molecule are retold here after patent US10945971B2, “Sphingosine kinase type 1 inhibitors and uses thereof” (Enzo Therapeutics, Inc., priority 2008, dated 2021).

Each structure is given as a SMILES string.

The subject of one test is Akt. The test is described as follows: Western blotting of Akt phosphorylation, LN229 cells. The class given is cell-based, human. Particulars: LN229, serum, LPA or EGF stimulated, 20 minutes treatment. The protocol:
(§1) Cells were scraped in buffer containing 20 mM Tris-HCl, pH 7.5, 50 mM NaCl, 50 mM NaF, 30 mM Na4P2O7, 20 mM 2-glycerophosphate, 1 mM Na3VO4, 5 mM EDTA, 2 mM EGTA, 0.5% SDS and protease inhibitor cocktail (1:200 dilution) and probe-sonicated. Equal amounts of protein determined with bicinchoninic acid (Pierce, Rockford, Ill.), were resolved by SDS-PAGE and transferred to nitrocellulose membranes. Blots were blocked with 5% non-fat dry milk in Tris-buffered saline containing 0.1% […] (TBST) for 1 h at room temperature, and then incubated with primary antibodies (1:3,000 in 1% BSA) overnight, followed by the appropriate HRP-conjugated secondary antibodies (1:40,000 in 1% BSA). Immunocomplexes were visualized by enhanced chemiluminescence (Pierce).
Background: Immunoblotting shows a protein as a band on a membrane.

The next test has as its system p70S6K. Put plainly: Western blotting of p70S6K phosphorylation, LN229 cells. It counts as cell-based, human. The procedure: as §1
A further test concerns ERK1/2. The test is described as follows: Western blotting of ERK1/2 phosphorylation, LN229 cells. The class given is cell-based, human. The settings on record: LN229, serum, LPA, EGF, short-term. The protocol: as §1
Test [1] concerns S1P, sphingosine and ceramide levels. Put plainly: Sphingolipid metabolite levels by LC-ESI-MS/MS after SK1-I. It counts as cell-based. From the text:
Lipids were extracted and phosphorylated and unphosphorylated sphingoid bases, individual ceramide acyl chain species, as well as SK1-I and its metabolites were quantified by liquid chromatography, electrospray ionization-tandem mass spectrometry (LC-ESI-MS/MS) as described previously (Merrill et al. Methods 36:207-224, 2005).

With `CCCCCc1ccc(/C=C/[C@H](O)[C@@H](CO)NC)cc1` [SK1-I, (2R,3S,4E)-N-methyl-5-(4′-pentylphenyl)-2-aminopent-4-ene-1,3-diol], in the test with Akt, the “phosphorylation of Akt at Thr308 and Ser473” value is given as “markedly suppressed”. Moreover, the “activation of p70S6K (Thr389)” value in the test with p70S6K is listed as “reduced activation”. In the test on ERK1/2, the “stimulated ERK1/2 phosphorylation at Thr202/Tyr204” value is reported as “did not significantly affect”. Moreover, the “ceramide levels, particularly C16-ceramide” value in test [1] (after 24 h of treatment) was “increased markedly”. The S1P levels entry in test [1] (within 20 min after addition) is recorded as “significant reduction”. For the same molecule, in test [1] (within 1 h after addition), the ceramide levels result was “without major changes”, the “decrease in S1P levels” value was 70% and the sphingosine levels entry is recorded as “increase”.
